Results reported in patent US4568687A, “N-[2-4-(1H-Imidazol-1-yl)alkyl]-arylamides and pharmaceutical compositions” (American Cyanamid Company, priority 1984, dated 1986).
Structures can show the parent of a compound that is named as a salt.

How the values were obtained:
thromboxane synthetase = target: T1, thromboxane synthetase (Rattus norvegicus, UniProt P49430); assay: Inhibition of thromboxane (TXB2) formation in washed rat platelets, TXB2 by direct radioimmunoassay; assay type: cell-based, Okamoto-Aoki spontaneously hypertensive rats (SHR); conditions: 10 min; Dose 10^-4 (unit inferred); SHR platelet suspension, 10 minutes at 37° C.
T1 construct: The platelets were isolated by centrifuging the PRP for 10 minutes; endogenous in cells; host or cells: washed platelets from arterial blood of Okamoto-Aoki spontaneously hypertensive rats (rats from Taconic Farms)
T1 sequence (P49430 1-533): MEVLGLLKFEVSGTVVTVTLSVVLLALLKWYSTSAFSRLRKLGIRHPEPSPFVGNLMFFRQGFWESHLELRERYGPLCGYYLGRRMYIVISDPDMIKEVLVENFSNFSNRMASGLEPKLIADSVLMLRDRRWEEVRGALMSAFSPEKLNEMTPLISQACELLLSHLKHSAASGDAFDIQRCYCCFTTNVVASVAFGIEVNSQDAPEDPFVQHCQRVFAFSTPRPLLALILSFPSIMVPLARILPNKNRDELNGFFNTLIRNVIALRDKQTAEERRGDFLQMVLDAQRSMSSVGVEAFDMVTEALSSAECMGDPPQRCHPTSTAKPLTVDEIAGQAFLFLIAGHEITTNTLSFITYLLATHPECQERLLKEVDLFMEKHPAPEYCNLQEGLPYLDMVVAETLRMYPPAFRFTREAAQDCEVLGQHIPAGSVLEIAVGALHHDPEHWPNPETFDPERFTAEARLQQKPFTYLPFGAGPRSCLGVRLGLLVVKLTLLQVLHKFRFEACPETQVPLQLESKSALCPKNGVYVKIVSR
Experimental: Under urethan anesthesia, […] of arterial blood was collected in one ml. of 3.2% sodium citrate in a polystyrene tube from Okamoto-Aoki spontaneously hypertensive rats (SHR) (Taconic Farms, Germantown, NY) between 19 and 24 weeks in age. The blood was diluted with 3 ml. cold saline and centrifuged at room temperature for 15 minutes at 460×g. The platelet rich plasma (PRP) was separated. The platelets were isolated by centrifuging the PRP for 10 minutes at 1060×g and were washed in 4 ml. cold oxygenated Krebs phosphate buffer, pH 7.4. The chilled patelets recovered from centrifuging at 800×g for 10 minutes were resuspended in oxygenated Krebs phosphate buffer and diluted to contain 4.5-6.0×10^4 platelets/μl.
The inhibition of thromboxane (TX) formation was studied by determining the […] of thromboxane B2 (TXB2), the stable hydrolysis product of TXA2. Assay samples, prepared on ice, contained 200 μl platelet suspension, 50 μl saline, and 50 μl vehicle or drug under study (OKY-1581, UK-37248-01, 1-benzylimidazole, or indomethacin). The samples were incubated for 10 minutes at 37° C. in a metabolic shaker. The reaction was terminated by immersing the tubes in an ice bath and adding 50 μl of 0.5M citric acid. The samples were centrifuged for 10 minutes in a refrigerated centrifuge and the supernatants thus obtained were decanted and stored at -20° C. The TXB2 content for each sample was determined by a direct radioimmunoassay (RIA) utilizing a TXB2 specific RIA kit purchased from New England Nuclear, Boston, MA and expressed as pg TXB2 formed minute^-1 sample^-1, from which the percent inhibition of TXB2 formation was calculated.

[1] = system: spontaneously hypertensive rats of the Okamoto strain; assay: Hypotensive activity: mean arterial blood pressure (MABP) in spontaneously hypertensive rats, method of Chan and Poorvin; assay type: in vivo; conditions: gavage, 100 mg/kg or less, two doses 24 hours apart, sodium chloride loading; 28 hours after initial dose; average of 1-4 rats; initial average 160±1.5 mm; active if ≤116 (1 rat), ≤122 (2 rats), ≤128 (3 rats)
Experimental: The novel compounds of the present invention are also active hypotensive agents and were tested for hypotensive activity by the method of P. S. Chan and D. Poorvin, Clinical and Experimental Hypertension, 1 (6), 817-830 (1979). Male, 16 week old, spontaneously hypertensive rats of the Okamoto strain, from Taconic Farms, Germantown, N.Y. having an average mean arterial blood pressure of 160±1.5 mm of mercury are used in the test. […] A rat is dosed by gavage with a test compound, suspended in 2% pre-boiled starch at a concentration of 50 mg/ml, at a dose of 100 mg/kg of body weight or less, with 0.9% sodium chloride loading at a dose of 25 ml/kg of body weight. A second identical dose of the test compound, without sodium chloride loading is given 24 hours later. At 28 hours after the initial dose, the mean arterial blood pressure (MABP) is measured by the method of Chan and Poorvin vide supra. The procedure is repeated in a second and third rat when necessary. Based on the data obtained and using the three-stage "sequential probability ratio test" statistical method, the criteria for activity or retest are as follows:
If the blood pressure in the first rat is ≤116 mm mercury the compound is considered active. If the blood pressure is between […], a second rat is used. If the average blood pressure of the first and second rats is ≤122 mm the compound is considered active. If the average blood pressure is between 123 and 137 mm, a third rat is used. If the average blood pressure of the three rats is ≤128 mm the compound is considered active. The results of this test on representative compounds of the present invention appear in Table II below.

Row | SMILES | inhibition at 100 µM (thromboxane synthetase) [%] | MABP/mm Hg [1] [mm Hg]
1 | C=CCNc1ccc(Cl)cc1C(=O)NCCCn1ccnc1 [2-Allylamino-5-chloro-N--[3-(1H--imidazol-1-yl)propyl]benzamide] | 95 | 124
2 | CC(CCN1C(=O)c2ccccc2C1=O)n1ccnc1 (stereo not shown) [2-[3-(1H--imidazol-1-yl)butyl]-1H--isoindole-1,3(2H)--dione] |  | 124
3 | O=C1c2ccccc2C(=O)N1CCCCn1ccnc1 [2-[4-(1H-Imidazol-1-yl)butyl]-1H-isoindole-1,3(2H)-dione] | 99 | 120
4 | O=C1c2ccccc2C(=O)N1CCCCCCn1ccnc1 [2-[6-(1H--imidazol-1-yl)hexyl]-1H--isoindole-1,3(2H)--dione] |  | 110
5 | Cc1cc(Cl)cc(C(=O)NCCCn2ccnc2)c1N [2-amino-5-chloro-3-methyl-N--[3-(1H--imidazol-1-yl)propyl]benzamide dihydrochloride salt] | 80 | 125
6 | Nc1ccc(Cl)cc1C(=O)NCCCn1ccnc1 [2-amino-5-chloro-N--[3-(1H--imidazol-1-yl)propyl]benzamide] | 96 | 113
7 | O=C(NCCCn1ccnc1)c1ccccc1-c1ccccc1 [2-phenyl-N--[3-(1H--imidazol-1-yl)propyl]benzamide] | 95 | 124
8 | CC(CCNC(=O)c1ccc(Cl)c(Cl)c1)n1ccnc1 (stereo not shown) [3,4-dichloro-N--[3-(1H--imidazol-1-yl)butyl]benzamide] | 86 | 123
9 | Cc1cn(CCCNC(=O)c2ccc(Cl)c(Cl)c2)cn1 [3,4-dichloro-N--[3-(4-methyl-1H--imidazol-1-yl)propyl]benzamide] | 90 | 116
10 | O=C(NCCCn1ccnc1)c1cccc(Cl)c1 [3-Chloro-N-[3-(1H-imidazol-1-yl)propyl]benzamide] | 75.4 | 124
11 | Cc1cn(CCCNC(=O)c2cccc(Cl)c2)cn1 [3-chloro-N--[3-(4-methyl-1H--imidazol-1-yl)propyl]benzamide] | 84 | 122
12 | O=C(NCCCn1cnc(-c2ccccc2)c1)c1ccc(Cl)cc1 [4-Chloro-N-[3-(4-phenyl-1H-imidazol-1-yl)propyl]-benzamide] | 69 | 125
13 | O=C(NCCCn1ccnc1)c1ccc(Br)cc1 [4-bromo-N--[3-(1H--imidazol-1-yl)propyl]benzamide] | 85 | 120
14 | O=C(NCCCn1ccnc1-c1ccccc1)c1ccc(Br)cc1 [4-bromo-N--[3-(2-phenyl-1H--imidazol-1-yl)propyl]benzamide, fumarate] |  | 115
15 | Cc1cn(CCCNC(=O)c2ccc(Br)cc2)cn1 [4-bromo-N--[3-(4-methyl-1H--imidazol-1-yl)propyl]benzamide] | 80 | 122
16 | O=C(NCCCn1ccnc1)c1ccc(Cl)cc1 [4-chloro-N--[3-(1H--imidazol-1-yl)propyl]benzamide] | 95 | 126
17 | Cc1nccn1CCCNC(=O)c1ccc(Cl)cc1 [4-chloro-N--[3-(2-methyl-1H--imidazol-1-yl)propyl]benzamide] |  | 121
18 | Cc1cn(CCCNC(=O)c2ccc(Cl)cc2)cn1 [4-chloro-N--[3-(4-methyl-1H--imidazol-1-yl)propyl]benzamide] | 93 | 112
19 | Cc1cn(CCCNC(=O)c2ccc(C(F)(F)F)cc2)cn1 [4-trifluoromethyl-N--[3-(4-methyl-1H--imidazol-1-yl)propyl]benzamide] | 92 | 114
20 | O=C(NCCCCn1ccnc1)c1ccc(C(F)(F)F)cc1 [4-trifluoromethyl-N--[4-(1H--imidazol-1-yl)butyl]benzamide fumarate] | 97 | 123
21 | O=C(NCCCn1ccnc1)c1cccc2ccccc12 [N--[3-(1H--imidazol-1-yl)propyl]-1-naphthalenecarboxamide] | 75 | 124
22 | O=C(NCCCn1ccnc1)c1ccc2ccccc2c1 [N--[3-(1H--imidazol-1-yl)propyl]-2-naphthalenecarboxamide] | 97 | 127
23 | Cc1ccc(CC(=O)NCCCn2ccnc2)cc1 [N--[3-(1H--imidazol-1-yl)propyl]-4-methylbenzeneacetamide, hemifumarate] |  | 109
24 | O=C(NCCCn1ccnc1)c1ccccc1 [N-[3-(1H-Imidazol-1-yl)propyl]benzamide] | 96.3 | 128
